Test results published in US11377679B2, “Multi-well-based cell culture test device for rapid antibiotic susceptibility testing” (priority 2016, dated 2022).
Values after ≈ are worked out from the molar mass of the structure shown.

How the values were obtained:
Type in all cases: cell-based
[1] = tested on: P. aeruginosa; test: susceptibility testing using the cell culture test device (DRAST), strain from blood sample
From the text: (§1) Referring first to (a) of FIG. 4, a liquid medium containing a gelling agent is mixed with a biological agent to prepare a mixture solution as a first fluid. The liquid medium may include at least about 95% by weight of water and can be solidified due to the presence of the gelling agent. As the gelling agent, there may be exemplified agar, agarose, gelatin, alginate, collagen or fibrin. The use of agar or agarose is preferred. For example, agar may be used in an amount of 0.5 to 4% by weight in the liquid medium. The liquid medium usually requires no nutrients. In some examples, however, the liquid medium may include nutrients. The liquid medium may be a solution including a medium stimulating the division of particular cells.
(§2) Referring next to (b) of FIG. 4, the mixture solution is provided to a recess 421 formed at the bottom of a first sub-well. The mixture solution may be loaded in an amount corresponding to the volume of the recess of the first sub-well. The volume of the mixture solution loaded into the recess of the first sub-well is preferably from 10 μl to 200 μl, more preferably from 10 μl to 150 μl. If the volume of the mixture solution loaded into the first sub-well is less than the lower limit, the density of cells in the mixture solution is low, making it difficult to observe the cells. Meanwhile, if the volume of the mixture solution loaded into the first sub-well exceeds the upper limit, the mixture solution may overflow into a second sub-well beyond a barrier. […] The micropatterned groove also allows the mixture solution to be well fixed to the desired area. […] Referring to FIG. 5, a micropatterned groove 522 is formed in the well a sample to fix the sample to only the desired area.
(§3) A blood sample positive for bacterial infection is collected and diluted with a medium containing a gelling agent.
(§4) The mixture solution is solidified to form a solid thin film immobilized with the biological agent. When the temperature of the liquid medium drops, the medium is solidified, which restricts the mobility of the biological agent. This immobilization facilitates continuous observation of the motile biological agent.
(§5) As shown in (c) of FIG. 4, a second sub-well 430 including a bioactive agent in a solid form is provided with a solvent capable of dissolving the bioactive agent. When a bioactive agent is absent in the second sub-well 430, a solution containing a bioactive agent can be provided to the second sub-well 430. Herein, the bioactive agent may include a substance selected from antibiotics, anticancer agents, drugs such as immunosuppressants, nutrients, cellular secretions, signal transducers, viruses, cells, micro RNAs, proteins, antigens, antibodies, and DNA.

[2] = tested on: Enterobacter aerogenes; test: as above; settings: E. aerogenes from blood sample
From the text: as §1, §2, §3, §4, §5

[3] = tested on: P. aeruginosa; test: broth microdilution (BMD) susceptibility testing, strain from blood sample; settings: BMD testing method
Method: (§6) The tests were conducted on various antibiotics that are currently used in testing organizations. […] The concentrations shown in FIG. 12 are expressed in μg/mL.

[4] = tested on: Enterobacter aerogenes; test: as above; settings: E. aerogenes from blood sample; BMD testing method
Method: as §6

[5] = tested on: P. aeruginosa ATCC 27853; test: antibiotic susceptibility testing using the cell culture test device (DRAST), reference strain; settings: Pseudomonas aeruginosa, ATCC27853, observed until 6 h
From the text: as §1
(§7) Referring next to (b) of FIG. 4, the mixture solution is provided to a recess 421 formed at the bottom of a first sub-well. The mixture solution may be loaded in an amount corresponding to the volume of the recess of the first sub-well. The volume of the mixture solution loaded into the recess of the first sub-well is preferably from 10 μl to 200 μl, more preferably from 10 μl to 150 μl. If the volume of the mixture solution loaded into the first sub-well is less than the lower limit, the density of cells in the mixture solution is low, making it difficult to observe the cells. […]

[6] = tested on: E. faecalis ATCC 29212; test: as above; settings: Enterococcus faecalis, ATCC29212, observed until 6 h
From the text: as §1, §7

| Compound | susceptibility category [1] | susceptibility category [2] | susceptibility category [3] | susceptibility category [4] | MIC [5] [mg/L] | MIC [6] [mg/L] |
| --- | --- | --- | --- | --- | --- | --- |
| colistin | I | I | susceptible | S | – | – |
| CO/N=C(\C(=O)N[C@@H]1C(=O)N2C(C(=O)O)=C(COC(C)=O)CS[C@H]12)c1csc(N)n1 [cefotaxime] | susceptible | – | I | – | – | – |
| C[C@H]1[C@H](NC(=O)/C(=N\OC(C)(C)C(=O)O)c2csc(N)n2)C(=O)N1S(=O)(=O)O [aztreonam] | susceptible | – | I | – | 8 (≈ 18.4 µM) | – |
| CC1(C)S[C@@H]2[C@H](NC(=O)[C@H](C(=O)O)c3ccsc3)C(=O)N2[C@H]1C(=O)O [ticarcillin] | susceptible | – | I | – | – | – |
| CN(C)[C@@H]1C(O)=C(C(N)=O)C(=O)[C@@]2(O)C(O)=C3C(=O)c4c(O)cccc4[C@@](C)(O)[C@H]3C[C@@H]12 [tetracycline] | – | – | – | – | – | 8 (≈ 18 µM) |
